Results: PubChem BioAssay AID602210 (Sanford-Burnham Center for Chemical Genomics, 2012)
Calls of active or inactive are those of the source. How the calls were made is not given here.

Experiment: H9c2 cardiomyoblast viability modulators under 2-DG – cell-based, ATPlite luminescence, rat, set 2, myocardial damage modulator project, dose response (AID 602210)
Details: H9c2 rat cardiomyoblasts, 2-deoxyglucose-induced death, 2 h

Row | SMILES | IC50
1 | O=C(NCC1CCCO1)C(c1ccc(F)cc1)N(C(=O)Cn1nnc(-c2ccc(F)cc2)n1)c1cccc(O)c1 (stereo not given) | 18.3 µM (inactive)
2 | COC(=O)c1cc2ccc(OC)cc2c2cc(OC)c(OC)cc12 | > 79 µM (inactive)
3 | NS(=O)(=O)c1ccc(CCNc2ccn3nc(-c4ccc(OCCN5CCOCC5)cc4)cc3n2)cc1 | 45.8 µM (inactive)
4 | CC(=O)c1cccc(Nc2nc3ccccc3n3cnnc23)c1 | 8.67 µM
5 | c1cc2[nH]snc2c2nc(C3CC3)nc12 | 10.6 µM (inactive)
6 | COc1cc(-c2cc(C(=O)OCC(=O)NC3CC3)c3ccccc3n2)cc(OC)c1OC | 13.2 µM (inactive)
7 | COc1cccc(-c2cnc3c(NC=O)cc(-c4cccc(NC(C)=O)c4)cn23)c1 | 6.84 µM
8 | Cn1c2ccccc2c2cc(/C=N/NC(=O)c3cc(O)ccc3O)ccc21 | > 79 µM (inactive)
9 | O=C(Nc1ccccc1)c1nc[nH]c1C(=O)NCCNC(=O)c1[nH]cnc1C(=O)Nc1ccccc1 | 1.17 µM
10 | CCOc1ccccc1N1CC(O)=C(c2nc3ccccc3s2)C1=N | 13.8 µM (inactive)
11 | Fc1ccc(-n2cc(-c3ccccc3)c3c(N4CCOCC4)ncnc32)cc1 | 6.7 µM
12 | COc1ccccc1NC(=O)COc1ccc(/C=N/NC(=O)c2cccnc2)cc1 | 21.1 µM (inactive)
13 | COC(=O)c1cc(OC)c(OC)cc1NC(=O)c1ccc(C)o1 | 23.4 µM (inactive)
14 | COc1ccc(C=CC(=O)c2ccc3cc(OC)c(OC)cc3c2)cc1OC | 11.7 µM (inactive)
15 | C=CCOC(=O)C1=C[C@H](c2cn(C(C)=O)c3ccccc23)C[C@H](OCc2ccc(CO)cc2)O1 | 21.5 µM (inactive)
16 | CCCC(=O)Nc1nc2ccc(NC(=O)c3ccc(Br)o3)cc2s1 | > 79 µM (inactive)
17 | NC(=O)c1cc2ccccc2o/c1=N\NC(=O)c1ccc(F)cc1 | 7.99 µM
18 | COc1ccc(NC(=O)c2cc(-c3ccc(OC)c(OC)c3)nc3ccccc23)c(OC)c1 | > 79 µM (inactive)
19 | NC(=O)COc1ccc2oc(=O)cc(-c3cc4ccccc4o3)c2c1 | 17.2 µM (inactive)
20 | O=C(CCCN1C(=O)c2cccc3cccc(c23)C1=O)N1CCN(c2ccccc2O)CC1 | 19.5 µM (inactive)
21 | Cn1c(=O)c2[nH]c(NN=Cc3ccc(Br)cc3)nc2n(C)c1=O | 10.6 µM (inactive)
22 | O=C(C[C@H]1C/C=C\CC[C@H](Cc2ccc(F)cc2)C(=O)O[C@H](c2ccccc2)CNC1=O)N[C@H](CO)Cc1ccccc1 | 7.55 µM
23 | S=C(Nc1ccc(N2CCOCC2)cc1)Nc1ccc2nc(-c3ccco3)c(-c3ccco3)nc2c1 | 11.3 µM (inactive)
24 | COc1ccc(CCCNC(=O)C2(C)Cc3c(-c4ccc(NC(C)=O)cc4)ccnc3O2)cc1 (stereo not given) | 12.5 µM (inactive)
25 | COc1ccc(N(Cc2cc3cc(OC)ccc3[nH]c2=O)C(=O)c2cccnc2)cc1 | > 79 µM (inactive)
26 | COc1cc(-c2cc(NC(C)=O)c3ncc(-c4cc(OC)c(OC)c(OC)c4)n3c2)cc(OC)c1OC | 9.01 µM
27 | CCOCCn1ccc2c(OCC(=O)Nc3cc(OC)ccc3OC)cccc2c1=O | > 79 µM (inactive)
28 | COc1ccc(-c2nn3c(-c4ccco4)nnc3s2)cc1OC | 28.2 µM (inactive)
29 | COc1ccc(Cl)cc1NC(=O)CCS(=O)(=O)c1cc2c(cc1C)NC(=O)CO2 | 26 µM (inactive)
30 | COc1cc(NC(=O)c2ccc(-c3cn[nH]c3)c3ccoc23)cc(OC)c1OC | 15.4 µM (inactive)
